Literature values as cited in patent US20240261315A1 (Omikron Italia S.r.l., priority 2021, published 2024).

System: glaucomatous patients
Conditions: cited from earlier work

## C[N+](C)(C)CCOP(=O)([O-])OP(=O)(O)OC[C@H]1O[C@@H](n2ccc(N)nc2=O)C(O)C1O (some centres unmarked) [Citicoline, citidin-5′-difosfocholine]
Citicoline in oral solution
  increase of the width of P50-N95 tract of pERG: 100%
Oral solution 500 mg/die, vs antihypertensive therapy only
  loss of nervous fibres at the retinal layer through GDX: slows down the loss of nervous fibres at the retinal layer
